The results in this text go back to US20220016115A1, “USP19 INHIBITORS FOR USE IN THERAPY” (ALMAC DISCOVERY LIMITED, priority 2018, published 2022).

SMILES strings stand for the structures.

The experiment deals with T1, USP19 (Homo sapiens, UniProt O94966).
T1 sequence (O94966 1-1318): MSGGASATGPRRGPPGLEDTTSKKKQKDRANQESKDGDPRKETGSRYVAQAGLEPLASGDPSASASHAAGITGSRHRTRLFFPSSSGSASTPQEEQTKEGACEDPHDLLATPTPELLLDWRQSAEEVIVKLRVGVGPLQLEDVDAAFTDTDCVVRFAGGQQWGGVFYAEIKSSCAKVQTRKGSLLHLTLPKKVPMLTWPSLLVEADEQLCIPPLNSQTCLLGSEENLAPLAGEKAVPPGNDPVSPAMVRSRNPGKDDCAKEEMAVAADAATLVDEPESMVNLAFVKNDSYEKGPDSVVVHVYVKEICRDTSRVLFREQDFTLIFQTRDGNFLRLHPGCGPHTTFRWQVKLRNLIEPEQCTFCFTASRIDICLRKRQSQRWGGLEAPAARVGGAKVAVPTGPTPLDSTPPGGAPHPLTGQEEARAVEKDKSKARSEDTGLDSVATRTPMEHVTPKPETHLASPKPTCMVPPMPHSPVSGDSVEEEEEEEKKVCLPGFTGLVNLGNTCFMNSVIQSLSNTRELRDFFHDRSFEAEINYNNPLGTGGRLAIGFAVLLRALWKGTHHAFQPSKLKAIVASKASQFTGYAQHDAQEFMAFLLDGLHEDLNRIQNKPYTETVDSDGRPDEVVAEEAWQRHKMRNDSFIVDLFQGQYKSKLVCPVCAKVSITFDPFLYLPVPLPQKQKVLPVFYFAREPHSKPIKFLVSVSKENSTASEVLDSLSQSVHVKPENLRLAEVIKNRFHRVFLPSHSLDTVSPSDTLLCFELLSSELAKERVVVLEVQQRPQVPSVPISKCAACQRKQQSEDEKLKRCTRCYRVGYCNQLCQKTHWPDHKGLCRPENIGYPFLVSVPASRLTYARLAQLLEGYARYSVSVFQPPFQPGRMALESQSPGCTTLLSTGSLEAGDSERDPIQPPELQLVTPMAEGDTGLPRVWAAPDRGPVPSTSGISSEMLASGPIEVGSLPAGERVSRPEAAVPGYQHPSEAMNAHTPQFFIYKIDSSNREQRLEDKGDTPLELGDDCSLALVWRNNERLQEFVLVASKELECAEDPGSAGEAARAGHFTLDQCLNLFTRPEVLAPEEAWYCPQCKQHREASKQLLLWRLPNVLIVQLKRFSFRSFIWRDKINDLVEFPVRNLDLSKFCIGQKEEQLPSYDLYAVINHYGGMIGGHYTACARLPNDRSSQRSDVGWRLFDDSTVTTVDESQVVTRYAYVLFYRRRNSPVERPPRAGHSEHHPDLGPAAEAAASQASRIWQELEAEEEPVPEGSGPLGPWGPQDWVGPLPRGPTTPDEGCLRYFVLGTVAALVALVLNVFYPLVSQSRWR
As to the kind of experiment: USP19 fluorescence polarisation (FP) homogeneous assay. It counts as biochemical. On the set-up: Full-length USP19 was purchased from Boston Biochem (E-576); purchased Boston Biochem E-576. Conditions: Ubiquitin-Lys-TAMRA substrate, full-length USP19 2.5 nM, average of at least two duplicate experiments. Here is the method: Unless otherwise stated, all other reagents were purchased from Sigma. Enzymatic reactions were conducted in black flat bottom polystyrene 384-well plates (Nunc) and 30 μL total volume. […] Inhibitors were stored as 10 mM DMSO stocks in an inert environment (low humidity, dark, low oxygen, room temperature) using the Storage Pod System and serial dilutions were prepared in buffer just prior to the assay (from 200 μM to 2 μM, 8-18 data point curve). Following incubation at RT for 30 min, the enzymatic reactions were initiated by dispensing the Ub substrate (500 nM, 10 μL). FP was measured every 15 min over a period of 90 min (within the linear range of the assay) using a Synergy 4 plate reader (BioTek) exciting at 530 nm and measuring the amount of parallel and perpendicular light at 575 nm. The FP signal was subsequently normalised to the no compound control.
A general note: Polarisation of emitted light reports the rotation of a fluorescent probe.

Turning to `CC(C)CC(C)C(=O)N1CCC(O)(Cn2cc(C(=O)N(C)C)c(-c3ccccc3)cc2=O)C2(CCCC2)C1` (centres unmarked) [Example 197, 1-((7-(2,4-Dimethylpentanoyl)-10-hydroxy-7-azaspiro[4.5]decan-10-yl)methyl)-N,N-dimethyl-6-oxo-4-phenyl-1,6-dihydropyridine-3-carboxamide], the IC50 is < 500 nM.

As to `C[C@H](CC1CCCCC1)C(=O)N1CC[C@@](O)(Cn2cc(C(=O)N(C)C)c(-c3ccccc3F)cc2=O)C(C)(C)C1` [Example 205, 1-(((S)-1-((R)-3-Cyclohexyl-2-methylpropanoyl)-4-hydroxy-3,3-dimethylpiperidin-4-yl)methyl)-4-(2-fluorophenyl)-N,N-dimethyl-6-oxo-1,6-dihydropyridine-3-carboxamide], the IC50 was < 500 nM.

Take `C[C@H](CC1CCCCC1)C(=O)N1CC[C@@](O)(Cn2cc(C(=O)N3CCNCC3)c(-c3ccccc3F)cc2=O)C(C)(C)C1` [Example 206, 1-(((S)-1-((R)-3-Cyclohexyl-2-methylpropanoyl)-4-hydroxy-3,3-dimethylpiperidin-4-yl)methyl)-4-(2-fluorophenyl)-5-(piperazine-1-carbonyl)pyridin-2(1 H)-one]: the IC50 is < 500 nM.

For `C[C@H](CC1CCCCC1)C(=O)N1CC[C@@](O)(Cn2cc(C(=O)N3CCNC[C@H]3CO)c(-c3ccccc3)cc2=O)C(C)(C)C1` [Example 208, 1-(((S)-1-((R)-3-Cyclohexyl-2-methylpropanoyl)-4-hydroxy-3,3-dimethylpiperidin-4-yl)methyl)-5-((S)-2-(hydroxymethyl)piperazine-1-carbonyl)-4-phenylpyridin-2(1H)-one], the IC50 is < 500 nM.

On to `C[C@H](CC1CCCCC1)C(=O)N1CC[C@@](O)(Cn2cc(C(=O)N(C)C)c(-c3ccccc3)cc2=O)C2(CCCC2)C1` [Example 211, 1-(((S)-7-((R)-3-Cyclohexyl-2-methylpropanoyl)-10-hydroxy-7-azaspiro[4.5]decan-10-yl)methyl)-N,N-dimethyl-6-oxo-4-phenyl-1,6-dihydropyridine-3-carboxamide], for which the IC50 is < 500 nM.

For `C[C@H](CC1CCCCC1)C(=O)N1CC[C@@](O)(Cn2cc(C(=O)N3CCNCC3)c(-c3ccccc3)cc2=O)C2(CCCC2)C1` [Example 212, 1-(((S)-7-((R)-3-Cyclohexyl-2-methylpropanoyl)-10-hydroxy-7-azaspiro[4.5]decan-10-yl)methyl)-4-phenyl-5-(piperazine-1-carbonyl)pyridin-2(1H)-one], the IC50 is < 500 nM.

As to `C[C@@H]1CN(C(=O)c2cn(C[C@]3(O)CCN(C(=O)[C@H](C)CC4CCCCC4)CC3(C)C)c(=O)cc2-c2ccccc2)CCN1` [Example 213, 1-(((S)-1-((R)-3-Cyclohexyl-2-methylpropanoyl)-4-hydroxy-3,3-dimethylpiperidin-4-yl)methyl)-5-((R)-3-methylpiperazine-1-carbonyl)-4-phenylpyridin-2(1 H)-one], the IC50 was < 500 nM.

Regarding `C[C@H](CC1CCC1)C(=O)N1CC[C@@](O)(Cn2cc(C(=O)N(C)C)c(-c3ccccc3)cc2=O)C2(CCCC2)C1` [Example 214, 1-(((S)-7-((R)-3-Cyclobutyl-2-methylpropanoyl)-10-hydroxy-7-azaspiro[4.5]decan-10-yl)methyl)-N,N-dimethyl-6-oxo-4-phenyl-1,6-dihydropyridine-3-carboxamide], the IC50 is < 500 nM.

Regarding `C[C@H](CC1CCC1)C(=O)N1CC[C@@](O)(Cn2cc(C(=O)N3CCNCC3)c(-c3ccccc3)cc2=O)C2(CCCC2)C1` [Example 215, 1-(((S)-7-((R)-3-Cyclobutyl-2-methylpropanoyl)-10-hydroxy-7-azaspiro[4.5]decan-10-yl)methyl)-4-phenyl-5-(piperazine-1-carbonyl)pyridin-2(1H)-one], the IC50 was < 500 nM.

With `C[C@H](CC(F)(F)F)C(=O)N1CC[C@@](O)(Cn2cc(C(=O)N(C)C)c(-c3ccccc3)cc2=O)C2(CCCC2)C1` [Example 216, 1-(((S)-10-Hydroxy-7-((R)-4,4,4-trifluoro-2-methylbutanoyl)-7-azaspiro[4.5]decan-10-yl)methyl)-N,N-dimethyl-6-oxo-4-phenyl-1,6-dihydropyridine-3-carboxamide], the 50% inhibitory concentration (IC50) was < 500 nM.

`C[C@H](CC(F)(F)F)C(=O)N1CC[C@@](O)(Cn2cc(C(=O)N3CCNCC3)c(-c3ccccc3)cc2=O)C2(CCCC2)C1` [Example 217, 1-(((S)-10-Hydroxy-7-((R)-4,4,4-trifluoro-2-methylbutanoyl)-7-azaspiro[4.5]decan-10-yl)methyl)-4-phenyl-5-(piperazine-1-carbonyl)pyridin-2(1H)-one]: the IC50 is < 500 nM.

Turning to `C[C@H](CC1CCC1)C(=O)N1CC[C@@](O)(Cn2cc(C(=O)N(C)C)c(-c3ccccc3F)cc2=O)C2(CCCC2)C1` [Example 222, 1-(((S)-7-((R)-3-Cyclobutyl-2-methylpropanoyl)-10-hydroxy-7-azaspiro[4.5]decan-10-yl)methyl)-4-(2-fluorophenyl)-N,N-dimethyl-6-oxo-1,6-dihydropyridine-3-carboxamide], the IC50 is < 500 nM.

Take `C[C@H](CC1CCC1)C(=O)N1CC[C@@](O)(Cn2cc(C(=O)N3CCNCC3)c(-c3ccccc3F)cc2=O)C2(CCCC2)C1` [Example 224, 1-(((S)-7-((R)-3-Cyclobutyl-2-methylpropanoyl)-10-hydroxy-7-azaspiro[4.5]decan-10-yl)methyl)-4-(2-fluorophenyl)-5-(piperazine-1-carbonyl)pyridin-2(1 H)-one]: the IC50 was < 500 nM.

Take `C[C@H](CC1CCCCC1)C(=O)N1CC[C@@](O)(Cn2cc(C(=O)N(C)C)c(-c3ccccc3F)cc2=O)C2(CCCC2)C1` [Example 226, 1-(((S)-7-((R)-3-Cyclohexyl-2-methylpropanoyl)-10-hydroxy-7-azaspiro[4.5]decan-10-yl)methyl)-4-(2-fluorophenyl)-N,N-dimethyl-6-oxo-1,6-dihydropyridine-3-carboxamide]: the IC50 was < 500 nM.

Consider `C[C@H](CC1CCCCC1)C(=O)N1CC[C@@](O)(Cn2cc(C(=O)N3CCNCC3)c(-c3ccccc3F)cc2=O)C2(CCCC2)C1` [Example 227, 1-(((S)-7-((R)-3-Cyclohexyl-2-methylpropanoyl)-10-hydroxy-7-azaspiro[4.5]decan-10-yl)methyl)-4-(2-fluorophenyl)-5-(piperazine-1-carbonyl)pyridin-2(1 H)-one], for which the IC50 was < 500 nM.

Turning to `C[C@H](CC1CCCCC1)C(=O)N1CC[C@@](O)(Cn2cc(C(=O)N3CCC(O)CC3)c(-c3ccccc3)cc2=O)C(C)(C)C1` [Example 228, 1-(((S)-1-((R)-3-Cyclohexyl-2-methylpropanoyl)-4-hydroxy-3,3-dimethylpiperidin-4-yl)methyl)-5-(4-hydroxypiperidine-1-carbonyl)-4-phenylpyridin-2(1 H)-one], the IC50 was < 500 nM.

With `C[C@H](CC1CCCCC1)C(=O)N1CC[C@@](O)(Cn2cc(C(=O)N(C)C)c(C3CC3)cc2=O)C2(CCCC2)C1` [Example 232, 1-(((S)-7-((R)-3-Cyclohexyl-2-methylpropanoyl)-10-hydroxy-7-azaspiro[4.5]decan-10-yl)methyl)-4-cyclopropyl-N,N-dimethyl-6-oxo-1,6-dihydropyridine-3-carboxamide], the half-maximal inhibitory concentration (IC50) was < 500 nM.

What is called IC50 is the concentration that inhibits the measured activity by half.
